Like-named read-outs stand apart in the source and are kept apart here.
Assays:
[1] = tested on: control cell lines (HACAT, HEK293T, CRL-7250, NIH-3T3); test: qHTS cell viability, control cell lines as a group (mean AUC, Control.avg); type: cell-based
[2] = tested on: VN-MCC cell lines (MCC13, MCC26, UISO); test: qHTS cell viability, VN-MCC cell lines as a group (mean AUC, VN.MCC.avg); type: cell-based, human
[3] = tested on: MCC cell lines (WAGA, MKL-1, MKL-2, MCC13, MCC26, UISO); test: qHTS cell viability, all six MCC cell lines as a group (mean AUC, MCC.avg); type: cell-based, human
[4] = tested on: VP-MCC cell lines (WAGA, MKL-1, MKL-2); test: qHTS cell viability, VP-MCC cell lines as a group (mean AUC, VP.MCC.avg); type: cell-based, human
[5] = tested on: MCC13 cells (VN-MCC); test: qHTS cell viability (CellTiter-Glo, 72 h; primary and follow-up small molecule screen); type: cell-based, human
[6] = tested on: six MCC cell lines and four control cell lines; test: qHTS cell viability, all 10 cell lines screened; type: cell-based
[7] = tested on: CRL-7250 cells; test: qHTS cell viability (CellTiter-Glo, 72 h; primary screen), control cell line; type: cell-based
[8] = tested on: HACAT cells; test: as above; type: cell-based, human
[9] = tested on: MKL-2 cells (VP-MCC); test: qHTS cell viability (CellTiter-Glo, 72 h; primary and follow-up small molecule screen); type: cell-based, human
[10] = tested on: HEK293T cells; test: qHTS cell viability (CellTiter-Glo, 72 h; primary screen), control cell line; type: cell-based, human
[11] = tested on: MKL-1 cells (VP-MCC); test: qHTS cell viability (CellTiter-Glo, 72 h; primary and follow-up small molecule screen); type: cell-based, human
[12] = tested on: WAGA cells (VP-MCC); test: as above; type: cell-based, human
[13] = tested on: MCC26 cells (VN-MCC); test: as above; type: cell-based, human
[14] = tested on: NIH-3T3 cells; test: qHTS cell viability (CellTiter-Glo, 72 h; primary screen), control cell line; type: cell-based, mouse
[15] = tested on: UISO cells (VN-MCC); test: qHTS cell viability (CellTiter-Glo, 72 h; primary and follow-up small molecule screen); type: cell-based, human
[16] = NPC library, mean AUC of control cell lines
[17] = NPC library, mean AUC of VN-MCC cell lines
[18] = NPC library, mean AUC of six MCC cell lines
[19] = NPC library, mean AUC of VP-MCC cell lines
[20] = NPC library, 8-point DRC, area under dose-response curve
[21] = NPC library, 8-point DRC, control cell line

## O=C(CCCN1CCC(O)(c2ccc(Br)cc2)CC1)c1ccc(F)cc1 [Bromperidol]
[1]; [16]
  Control_Avg_AUC: 466.662
[2]; [17]
  VN-MCC_Avg_AUC: 488.845
[2]; NPC library, therapeutic window: Control avg AUC minus VN-MCC avg AUC
  Control-VN-MCC: -22.1834
[3]; [18]
  MCC_Avg_AUC: 305.111
[4]; [19]
  VP-MCC_Avg_AUC: 121.377
[4]; NPC library, therapeutic window: Control avg AUC minus VP-MCC avg AUC
  Control-VP-MCC: 345.285
[5]; NPC library, qHTS dose-response AUC, MCC13
  MCC13_AUC: 492.435
[5]; area under the dose-response curve, MCC13 cells, AUC<450 = reduced viability
  MCC13_AUC: 492.435
[5]; follow-up screen, MCC13, replicate 1
  Area under the dose-response curve (AUC) MCC13 Replicate 1: 481.5
[5]; follow-up screen, MCC13, replicate 2
  Area under the dose-response curve (AUC) MCC13 Replicate 2: 447.1
[5]; follow-up screen, MCC13, replicate 3
  Area under the dose-response curve (AUC) MCC13 Replicate 3: 475.2
[6]; NPC library, therapeutic window: Control avg AUC minus MCC avg AUC
  Control-MCC: 161.551
[7]; NPC library, qHTS dose-response AUC, CRL7250 control
  CRL7250_AUC: 469.585
[7]; area under the dose-response curve, CRL7250 control cells, AUC<450 = reduced viability
  CRL7250_AUC: 469.584
[8]; NPC library, qHTS dose-response AUC, HACAT control
  HACAT_AUC: 453.423
[8]; area under the dose-response curve, HACAT control cells, AUC<450 = reduced viability
  HACAT_AUC: 453.423
[9]; NPC library, qHTS dose-response AUC, MKL2
  MKL2_AUC: 116.273
[9]; area under the dose-response curve, MKL-2 cells, AUC<450 = reduced viability
  MKL2_AUC: 116.273
[9]; follow-up screen, MKL-2, replicate 1
  Area under the dose-response curve (AUC) MKL-2 Replicate 1: 432.2
[9]; follow-up screen, MKL-2, replicate 2
  Area under the dose-response curve (AUC) MKL-2 Replicate 2: 463.9
[9]; follow-up screen, MKL-2, replicate 3
  Area under the dose-response curve (AUC) MKL-2 Replicate 3: 462.5
[10]; NPC library, qHTS dose-response AUC, HEK293T control
  HEK293T_AUC: 458.67
[10]; area under the dose-response curve, HEK293T control cells, AUC<450 = reduced viability
  HEK293T_AUC: 458.67
[11]; NPC library, qHTS dose-response AUC, MKL1
  MKL1_AUC: 166.857
[11]; area under the dose-response curve, MKL-1 cells, AUC<450 = reduced viability
  MKL1_AUC: 166.857
[11]; follow-up screen, MKL-1, replicate 1
  Area under the dose-response curve (AUC) MKL-1 Replicate 1: 478.5
[11]; follow-up screen, MKL-1, replicate 2
  Area under the dose-response curve (AUC) MKL-1 Replicate 2: 458.4
[11]; follow-up screen, MKL-1, replicate 3
  Area under the dose-response curve (AUC) MKL-1 Replicate 3: 486.1
[12]; NPC library, qHTS dose-response AUC, WAGA
  WAGA_AUC: 81.0002
[12]; area under the dose-response curve, WAGA cells, AUC<450 = reduced viability
  WAGA_AUC: 81.0002
[12]; follow-up screen, WAGA, replicate 1
  Area under the dose-response curve (AUC) WAGA Replicate 1: 490.2
[12]; follow-up screen, WAGA, replicate 2
  Area under the dose-response curve (AUC) WAGA Replicate 2: 473.6
[12]; follow-up screen, WAGA, replicate 3
  Area under the dose-response curve (AUC) WAGA Replicate 3: 491.6
[13]; NPC library, qHTS dose-response AUC, MCC26
  MCC26_AUC: 508.837
[13]; area under the dose-response curve, MCC26 cells, AUC<450 = reduced viability
  MCC26_AUC: 508.837
[13]; follow-up screen, MCC26, replicate 1
  Area under the dose-response curve (AUC) MCC26 Replicate 1: 451.5
[13]; follow-up screen, MCC26, replicate 2
  Area under the dose-response curve (AUC) MCC26 Replicate 2: 430.2
[13]; follow-up screen, MCC26, replicate 3
  Area under the dose-response curve (AUC) MCC26 Replicate 3: 459.8
[14]; NPC library, qHTS dose-response AUC, NIH3T3 control
  NIH3T3_AUC: 484.97
[14]; area under the dose-response curve, NIH3T3 control cells, AUC<450 = reduced viability
  NIH3T3_AUC: 484.97
[15]; NPC library, qHTS dose-response AUC, UISO
  UISO_AUC: 465.264
[15]; area under the dose-response curve, UISO cells, AUC<450 = reduced viability
  UISO_AUC: 465.264
[15]; follow-up screen, UISO, replicate 1
  Area under the dose-response curve (AUC) UISO Replicate 1: 462.9
[15]; follow-up screen, UISO, replicate 2
  Area under the dose-response curve (AUC) UISO Replicate 2: 471.4
[15]; follow-up screen, UISO, replicate 3
  Area under the dose-response curve (AUC) UISO Replicate 3: 450.6

## CN(C)CCc1c[nH]c2ccc(O)cc12 [Bufotenine]
[1]
  Control_Avg_AUC: 493.471
[2]
  Control-VN-MCC: 64.2925
  VN-MCC_Avg_AUC: 429.178
[3]
  MCC_Avg_AUC: 427.925
[4]
  Control-VP-MCC: 66.7991
  VP-MCC_Avg_AUC: 426.671
[5]
  MCC13_AUC: 457.919
[6]
  Control-MCC: 65.5458
[7]
  CRL7250_AUC: 497.008
[8]
  HACAT_AUC: 494.192
[9]
  MKL2_AUC: 417.248
[10]
  HEK293T_AUC: 488.2
[11]
  MKL1_AUC: 439.853
[12]
  WAGA_AUC: 422.913
[13]
  MCC26_AUC: 406.205
[14]
  NIH3T3_AUC: 494.482
[15]
  UISO_AUC: 423.411

## O=C1CC2(CCCC2)CC(=O)N1CCCCN1CCN(c2ncccn2)CC1 [Buspirone]
[1]; [16]
  Control_Avg_AUC: 487.669
[2]; NPC library, Control AUC minus VN-MCC AUC (therapeutic window)
  Control-VN-MCC: 50.1753
[2]; [17]
  VN-MCC_Avg_AUC: 437.494
[3]; [18]
  MCC_Avg_AUC: 437.234
[4]; NPC library, Control AUC minus VP-MCC AUC (therapeutic window)
  Control-VP-MCC: 50.6954
[4]; [19]
  VP-MCC_Avg_AUC: 436.974
[5]; [20]
  MCC13_AUC: 448.981
[6]; NPC library, Control AUC minus MCC AUC (therapeutic window)
  Control-MCC: 50.4353
[7]; [21]
  CRL7250_AUC: 487.221
[8]; [21]
  HACAT_AUC: 483.772
[9]; [20]
  MKL2_AUC: 407.552
[10]; [21]
  HEK293T_AUC: 489.604
[11]; [20]
  MKL1_AUC: 457.095
[12]; [20]
  WAGA_AUC: 446.274
[13]; [20]
  MCC26_AUC: 427.549
[14]; [21]
  NIH3T3_AUC: 490.08
[15]; [20]
  UISO_AUC: 435.953
